# Assay results: patent publication US20090234019A1, “T Type Calcium Channel Inhibitors” (priority 2004, published 2009)
# Where two headings read alike, the source gives them in different places.
# Key:
# Jurkat cells [1] = experiment: Inhibition of proliferation of Jurkat cells; format: cell-based, human
# Protocol: (§1) Cancer cell lines were obtained from the American Type Culture Collection (Manassas, Va.). Cell lines were maintained in RPMI1640 supplemented with glutamine and 5% fetal bovine serum containing SerXtend (Irvine Scientific) when appropriate insulin, as directed by the ATCC. The fetal bovine serum used for culture was heat-inactivated by maintaining the serum at 56° C. for 1 h. Cell lines used were a T celleukemia (Jurkat), prostate cancer (PC3, DU145, LNCAP), breast cancer (MDA468, MDA361, MCF7), pancreatic cancer (MIA PaCa2), liver cancer (Hep G2), lung cancer (A549, NCl H460), colon cancer (HT29, HCT 116), and ovarian cancer (SK-OV-3).
# (§2) LNCaP cells at 2.5×10^4 cells/well or PC-3 cells at 5×10^4 cells/well, both in a final volume of […], were plated in triplicate in standard flat-bottomed 96-well tissue culture plates in the presence of drug or vehicle (DMSO). Unless otherwise indicated, cells were grown for 48 h at 37° C. in a CO2 incubator. Relative cell growth was determined with the CellTiter 96 aqueous cell proliferation assay (Promega, Madison, Wis.) as described by the manufacturer using an automated plate reader. Results were calculated in a blinded fashion and are the means of triplicate determinations.
# Jurkat cells [2] = experiment: Inhibition of calcium entry into Jurkat cells (indo-1 fluorescence); format: cell-based, human
# Protocol: Cells were incubated in growth media containing 1 uM of the acetoxy-methyl ester of the Ca2+-sensitive fluorescent dye indo-1 (indo-1/AM; Molecular Probes, Eugene, Oreg.) for 1 h at 37° C. Cells were washed three times in buffer A [10 mM HEPES (pH 7.4), 1 mM MgCl2, 3 mM KCl, 1 mM CaCl2, 140 mM NaCl, 0.1% glucose, and 1% fetal bovine serum] and suspended to a final concentration of 10^6 cells/ml. Before stimulation, cells were warmed to 37° C. Changes in [Ca2+]i were monitored in an SLM […] spectrofluorimeter (SLM/Aminco; Urbana, Ill.) using previously published methods ([…]., Szabo, G., and Gray, L. S. 1996. A voltage operable current is involved in activation-induced Ca^2+ entry in human lymphocytes whereas ICRAC has no apparent role. Am. J. Physiol. 271:[…]., and Gray, L. S. 1998. Calmodulin regulation of Ca^2+ entry in Jurkat T cells. Cell Calcium 23:361-368).
# MDA-361 cells = experiment: Inhibition of proliferation of MDA-361 cells; format: cell-based; conditions: MDA361, NE = no effect at highest concentration of drug tested, read-out: prolif: IC50 for inhibition of proliferation, MDA-361
# Protocol: as §1, §2
# LNCaP cells [3] = experiment: Inhibition of calcium entry into LNCaP cells; format: cell-based; conditions: Homo sapiens, NE = no effect at highest concentration of drug tested, read-out: Ca2+: IC50 for inhibition of calcium entry, LNCaP
# Protocol: (§3) Cells were incubated in growth media containing 1 uM of the acetoxy-methyl ester of the Ca2+-sensitive fluorescent dye indo-1 (indo-1/AM; Molecular Probes, Eugene, Oreg.) for 1 h at 37° C. Cells were washed three times in buffer A [10 mM HEPES (pH 7.4), 1 mM MgCl2, 3 mM KCl, 1 mM CaCl2, 140 mM NaCl, 0.1% glucose, and 1% fetal bovine serum] and suspended to a final concentration of 10^6 cells/ml. Before stimulation, cells were warmed to 37° C. Changes in [Ca2+]i were monitored in an SLM 8100C spectrofluorimeter (SLM/Aminco; Urbana, Ill.) using previously published methods (Densmore, J. J., Haverstick, D. M., Szabo, G., and Gray, L. S. 1996. A voltage operable current is involved in activation-induced Ca^2+ entry in human lymphocytes whereas ICRAC has no apparent role. Am. J. Physiol. 271:C1494-C1503; Haverstick, D. M., Densmore, J. J., and Gray, L. S. 1998. Calmodulin regulation of Ca^2+ entry in Jurkat T cells. Cell Calcium 23:361-368).
# LNCaP cells [4] = experiment: Inhibition of proliferation of LNCaP cells; format: cell-based; conditions: Homo sapiens, read-out: prolif: IC50 for inhibition of proliferation, LNCaP
# Protocol: as §1, §2
# PC3 cells = experiment: Inhibition of proliferation of PC3 cells; format: cell-based, human; conditions: Homo sapiens, PC-3, PC3, read-out: prolif: IC50 for inhibition of proliferation, PC3
# Protocol: as §1, §2
# MDA-435 cells = experiment: Inhibition of proliferation of MDA-435 cells; format: cell-based; conditions: read-out: prolif: IC50 for inhibition of proliferation, MDA-435
# MDA-231 cells [5] = experiment: Inhibition of proliferation of MDA-231 cells; format: cell-based; conditions: Homo sapiens, read-out: prolif: IC50 for inhibition of proliferation, MDA-231
# MDA-231 cells [6] = experiment: Inhibition of calcium entry into MDA-231 cells; format: cell-based; conditions: Homo sapiens, MDA-MB-231, NE = no effect at highest concentration of drug tested, read-out: Ca2+: IC50 for inhibition of calcium entry, MDA-231
# Protocol: as §3
# [7] = Homo sapiens, Jurkat cell line, Tables 1 and 2, unit inferred, read-out: IC50 for inhibition of proliferation
# [8] = Homo sapiens, Jurkat cell line, Tables 1 and 2, unit inferred, read-out: IC50 for inhibition of Ca^2+ entry
# [9] = Jurkat cell line, Tables 1 and 2, unit inferred, read-out: IC50 for inhibition of proliferation
# [10] = Jurkat cell line, Tables 1 and 2, unit inferred, read-out: IC50 for inhibition of Ca^2+ entry
# [11] = NE = no effect at highest concentration of drug tested
# [12] = MDA435, NE = no effect at highest concentration of drug tested
# [13] = Homo sapiens, Jurkat, NE = no effect at highest concentration of drug tested, read-out: prolif: IC50 for inhibition of proliferation, Jurkat
# [14] = MDA-MB-231, NE = no effect at highest concentration of drug tested
# [15] = Homo sapiens, Jurkat, NE = no effect at highest concentration of drug tested, read-out: Ca2+: IC50 for inhibition of calcium entry, Jurkat
compound,measurement,setting,value
CC(NC(C)(C)C)C(=O)c1cccc(Cl)c1 (stereo not shown) [Bupropion],IC50,Jurkat cells [1]; [7],> 100 µM
same,IC50,Jurkat cells [2]; [8],> 100 µM
COC(=O)C1=C(C)NC(C)=C(C(=O)OCCN(C)Cc2ccccc2)C1c1cccc([N+](=O)[O-])c1 (stereo not shown) [Nicardipine],IC50,Jurkat cells [1]; [7],30 µM
same,IC50,Jurkat cells [2]; [8],10 µM
CCN(CC)C(C)CN1c2ccccc2Sc2ccccc21 (stereo not shown) [Ethopropazine],IC50,Jurkat cells [1]; [7],30 µM
same,IC50,Jurkat cells [2]; [8],10 µM
O=C(O)c1cccnc1Nc1cccc(C(F)(F)F)c1 [Niflumic acid],IC50,Jurkat cells [1]; [7],100 µM
same,IC50,Jurkat cells [2]; [8],50 µM
CN(C)CCCN1c2ccccc2Sc2ccccc21 [Promazine],IC50,Jurkat cells [1]; [7],30 µM
same,IC50,Jurkat cells [2]; [8],10 µM
CC(C)COCC(CN(Cc1ccccc1)c1ccccc1)N1CCCC1 (stereo not shown) [Bepridil],IC50,Jurkat cells [1]; [7],10 µM
same,IC50,Jurkat cells [2]; [8],5 µM
COc1ccc2cc1Oc1ccc(cc1)C[C@H]1c3cc(c(OC)cc3CCN1C)Oc1c(OC)c(OC)cc3c1[C@H](C2)N(C)CC3 [Tetrandrine],IC50,Jurkat cells [1]; [7],3 µM
same,IC50,Jurkat cells [2]; [8],10 µM
"CC(Cc1ccc(O)c(O)c1)C(C)Cc1ccc(O)c(O)c1 (stereo not shown) [NDGA, Nordihydroguaiaretic acid]",IC50,Jurkat cells [1]; [9],30 µM
same,IC50,Jurkat cells [2]; [10],10 µM
C1CCC(C(CC2CCCCN2)C2CCCCC2)CC1 (stereo not shown) [Perhexiline],IC50,Jurkat cells [1]; [7],10 µM
same,IC50,Jurkat cells [2]; [8],5 µM
C[C@H](CCC(=O)O)C[C@H](C)C[C@H](C)C(=O)/C=C(\O)[C@H](C)C[C@H](C)C/C=C/[C@@H](C)[C@@H](O)[C@@H](C)[C@@H](O)C[C@@H]1CC[C@@](C)([C@H]2CC[C@@](C)([C@@H](C)O)O2)O1 [ionomycin],effect on proliferation of ionomycin alone,"Jurkat cells [1]; 30 nM ionomycin alone, Jurkat",no effect
CC(NCCC(c1ccccc1)c1ccccc1)c1ccccc1 (stereo not shown) [Fendiline],IC50,Jurkat cells [1]; [7],30 µM
same,IC50,Jurkat cells [2]; [8],10 µM
O=c1[nH]c2ccccc2n1C1CCN(CCCC(c2ccc(F)cc2)c2ccc(F)cc2)CC1 [Pimozide],IC50,Jurkat cells [1]; [7],> 100 µM
same,IC50,Jurkat cells [2]; [8],> 100 µM
COc1ccc(CC[N+](C)(C)CCOC(c2ccccc2)c2ccc(Cl)cc2)cc1 (stereo not shown) [Compound 3.16],IC50,MDA-361 cells,8 µM
same,IC50,LNCaP cells [3],10 µM
same,IC50,LNCaP cells [4]; [11],0.033 mM
same,IC50,PC3 cells; [11],0.055 mM
same,IC50,MDA-435 cells; [12],0.05 mM
same,IC50,Jurkat cells [1]; [13],23 µM
same,IC50,MDA-231 cells [5]; [14],0.021 mM
same,IC50,Jurkat cells [2]; [15],30 µM
COc1ccc(COCCOC(c2ccccc2)c2ccc(Cl)cc2)cc1 (stereo not shown) [Compound 3.7],IC50,MDA-361 cells,> 100 µM
same,IC50,MDA-231 cells [6],60 µM
same,IC50,LNCaP cells [4]; [11],~0.1 mM
same,IC50,PC3 cells; [11],> 0.1 mM
same,IC50,MDA-435 cells; [12],> 0.1 mM
same,IC50,Jurkat cells [1]; [13],~100 µM
same,IC50,MDA-231 cells [5]; [14],> 0.1 mM
same,IC50,Jurkat cells [2]; [15],10 µM
CN1CCN(C(c2ccccc2)c2ccc(Cl)cc2)CC1 (stereo not shown) [Chlorcyclizine],IC50,Jurkat cells [1]; [7],90 µM
same,IC50,Jurkat cells [2]; [8],25 µM
COc1ccc(CCCNCCCC(c2ccccc2)c2ccc(Cl)cc2)cc1 (stereo not shown) [Compound 3.3],IC50,MDA-231 cells [6],100 µM
same,IC50,LNCaP cells [4]; [11],0.042 mM
same,IC50,PC3 cells; [11],> 0.1 mM
same,IC50,MDA-435 cells; [12],> 0.1 mM
same,IC50,Jurkat cells [1]; [13],70 µM
same,IC50,MDA-231 cells [5]; [14],> 0.1 mM
same,IC50,Jurkat cells [2]; [15],60 µM
COc1ccc2c(c1)N(C[C@H](C)CN(C)C)c1ccccc1S2 [Methotrimeprazine],IC50,Jurkat cells [1]; [7],30 µM
same,IC50,Jurkat cells [2]; [8],10 µM
COC(=O)C1=C(C)NC(C)=C(C(=O)OC(C)C)C1c1cccc2nonc12 (stereo not shown) [Isradipine],IC50,Jurkat cells [1]; [7],100 µM
same,IC50,Jurkat cells [2]; [8],10 µM
COc1ccc(CCCCCCNC(c2ccccc2)c2ccc(Cl)cc2)cc1 (stereo not shown) [Compound 3.23],IC50,LNCaP cells [4]; [11],~0.1 mM
same,IC50,PC3 cells; [11],> 0.1 mM
same,IC50,MDA-435 cells; [12],> 0.1 mM
same,IC50,Jurkat cells [1]; [13],~30 µM
same,IC50,MDA-231 cells [5]; [14],> 0.1 mM
COCCOC(=O)C1=C(C)NC(C)=C(C(=O)OC(C)C)C1c1cccc([N+](=O)[O-])c1 (stereo not shown) [Nimpodipine],IC50,Jurkat cells [1]; [9],> 100 µM
same,IC50,Jurkat cells [2]; [10],> 100 µM
COc1ccc(CCCCCNCC(c2ccccc2)c2ccc(Cl)cc2)cc1 (stereo not shown) [Compound 3.22],IC50,MDA-231 cells [6],10 µM
same,IC50,LNCaP cells [4]; [11],0.009 mM
same,IC50,PC3 cells; [11],0.009 mM
same,IC50,MDA-435 cells; [12],0.04 mM
same,IC50,Jurkat cells [1]; [13],13 µM
same,IC50,MDA-231 cells [5]; [14],0.025 mM
same,IC50,Jurkat cells [2]; [15],3 µM
CC(CN1c2ccccc2Sc2ccccc21)N(C)C (stereo not shown) [Promethazine],IC50,Jurkat cells [1]; [7],4 µM
same,IC50,Jurkat cells [2]; [8],60 µM
COc1ccc(CCNc2ccccc2COC(c2ccccc2)c2ccc(Cl)cc2)cc1 (stereo not shown) [Compound 3.10],IC50,MDA-361 cells,~70 µM
same,IC50,LNCaP cells [4]; mM,> 1 mM
same,IC50,PC3 cells; mM,> 1 mM
same,IC50,"MDA-435 cells; MDA435, mM",> 1 mM
same,IC50,Jurkat cells [1]; [13],> 300 µM
same,IC50,"MDA-231 cells [5]; MDA-MB-231, mM",> 1 mM
Prenylamine lactate,IC50,Jurkat cells [1]; [9],10 µM
same,IC50,Jurkat cells [2]; [10],10 µM
Cc1cccc(CN2CCN(C(c3ccccc3)c3ccc(Cl)cc3)CC2)c1 (stereo not shown) [Meclizine],IC50,Jurkat cells [1]; [7],30 µM
same,IC50,Jurkat cells [2]; [8],30 µM
Cc1cccc(C)c1NC(=O)CN1CCN(CCCC(c2ccc(F)cc2)c2ccc(F)cc2)CC1 [Lidoflazine],IC50,Jurkat cells [1]; [7],10 µM
same,IC50,Jurkat cells [2]; [8],5 µM
CCC(=O)c1ccc2c(c1)N(CC(C)N(C)C)c1ccccc1S2 (stereo not shown) [Propiomazine],IC50,Jurkat cells [1]; [7],30 µM
same,IC50,Jurkat cells [2]; [8],30 µM
